± gives the expanded uncertainty stated by the source.
Assay: mn = molality of the nth substance listed, in mol/kg
Settings: 101 kPa, Liquid

CCCCCCn1cc[n+](C)c1.[Br-] [3-hexyl-1-methyl-1H-imidazolium bromide] + O
Settings | mass density, 283.15 K [kg/m3] | mass density, 288.15 K [kg/m3] | mass density, 293.15 K [kg/m3] | mass density, 298.15 K [kg/m3] | mass density, 303.15 K [kg/m3] | speed of sound, 283.15 K [m/s] | speed of sound, 288.15 K [m/s] | speed of sound, 293.15 K [m/s] | speed of sound, 298.15 K [m/s] | speed of sound, 303.15 K [m/s]
m1 = 0.0042 | 999.919 ± 0.48 | 999.312 ± 0.49 | 998.411 ± 0.49 | 997.246 ± 0.5 | 995.843 ± 0.51 | 1448.7 ± 2.9 | 1467 ± 2.9 | 1483.2 ± 2.9 | 1497.5 ± 2.9 | 1509.8 ± 3
m1 = 0.0048 | 999.941 ± 0.48 | 999.334 ± 0.49 | 998.432 ± 0.49 | 997.266 ± 0.5 | 995.864 ± 0.51 | 1448.8 ± 2.9 | 1467.1 ± 2.9 | 1483.2 ± 2.9 | 1497.5 ± 2.9 | 1509.8 ± 3
m1 = 0.0067 | 1000.03 ± 0.48 | 999.423 ± 0.49 | 998.518 ± 0.49 | 997.351 ± 0.5 | 995.948 ± 0.51 | 1449.2 ± 2.9 | 1467.4 ± 2.9 | 1483.5 ± 2.9 | 1497.7 ± 2.9 | 1510.1 ± 3
m1 = 0.0081 | 1000.1 ± 0.49 | 999.485 ± 0.49 | 998.579 ± 0.49 | 997.413 ± 0.5 | 996.006 ± 0.51 | 1449.3 ± 2.9 | 1467.4 ± 2.9 | 1483.6 ± 2.9 | 1497.7 ± 2.9 | 1510.1 ± 3
m1 = 0.0139 | 1000.38 ± 0.49 | 999.762 ± 0.49 | 998.85 ± 0.49 | 997.679 ± 0.5 | 996.267 ± 0.51 | 1450.3 ± 2.9 | 1468.4 ± 2.9 | 1484.5 ± 2.9 | 1498.6 ± 3 | 1510.8 ± 3
m1 = 0.0295 | 1001.15 ± 0.49 | 1000.52 ± 0.49 | 999.592 ± 0.49 | 998.405 ± 0.49 | 996.983 ± 0.5 | 1452.9 ± 2.9 | 1470.8 ± 2.9 | 1486.7 ± 2.9 | 1500.5 ± 3 | 1512.6 ± 3
m1 = 0.0369 | 1001.52 ± 0.49 | 1000.88 ± 0.49 | 999.946 ± 0.49 | 998.754 ± 0.49 | 997.324 ± 0.5 | 1453.3 ± 2.9 | 1471.1 ± 2.9 | 1486.8 ± 2.9 | 1500.6 ± 3 | 1512.5 ± 3
m1 = 0.0487 | 1002.1 ± 0.5 | 1001.45 ± 0.49 | 1000.5 ± 0.49 | 999.3 ± 0.49 | 997.863 ± 0.5 | 1455.3 ± 2.9 | 1473 ± 2.9 | 1488.5 ± 2.9 | 1502.2 ± 3 | 1514 ± 3
m1 = 0.064 | 1002.84 ± 0.5 | 1002.17 ± 0.5 | 1001.21 ± 0.49 | 999.994 ± 0.49 | 998.545 ± 0.49 | 1457.9 ± 2.9 | 1475.3 ± 2.9 | 1490.7 ± 2.9 | 1504.1 ± 3 | 1515.7 ± 3
m1 = 0.073 | 1003.27 ± 0.51 | 1002.59 ± 0.5 | 1001.62 ± 0.5 | 1000.4 ± 0.49 | 998.942 ± 0.49 | 1459.4 ± 2.9 | 1476.6 ± 2.9 | 1491.9 ± 2.9 | 1505.2 ± 3 | 1516.7 ± 3
m1 = 0.094 | 1004.29 ± 0.51 | 1003.59 ± 0.51 | 1002.6 ± 0.5 | 1001.35 ± 0.5 | 999.878 ± 0.49 | 1462.8 ± 2.9 | 1479.8 ± 2.9 | 1494.8 ± 2.9 | 1507.8 ± 3 | 1519.2 ± 3
m1 = 0.1183 | 1005.45 ± 0.52 | 1004.72 ± 0.52 | 1003.71 ± 0.51 | 1002.44 ± 0.5 | 1000.95 ± 0.49 | 1466.9 ± 2.9 | 1483.5 ± 2.9 | 1498.2 ± 3 | 1510.9 ± 3 | 1522 ± 3
m1 = 0.1423 | 1006.6 ± 0.53 | 1005.85 ± 0.52 | 1004.81 ± 0.52 | 1003.53 ± 0.51 | 1002.01 ± 0.5 | 1470.9 ± 2.9 | 1487.1 ± 2.9 | 1501.4 ± 3 | 1513.9 ± 3 | 1524.7 ± 3
m1 = 0.1639 | 1007.6 ± 0.54 | 1006.82 ± 0.53 | 1005.77 ± 0.53 | 1004.47 ± 0.52 | 1002.94 ± 0.51 | 1474 ± 2.9 | 1490 ± 2.9 | 1504.1 ± 3 | 1516.3 ± 3 | 1526.9 ± 3
m1 = 0.2206 | 1010.25 ± 0.55 | 1009.42 ± 0.55 | 1008.31 ± 0.54 | 1006.95 ± 0.53 | 1005.38 ± 0.52 | 1482.7 ± 2.9 | 1497.9 ± 3 | 1511.2 ± 3 | 1522.8 ± 3 | 1532.7 ± 3
m1 = 0.2581 | 1011.96 ± 0.57 | 1011.09 ± 0.56 | 1009.94 ± 0.55 | 1008.55 ± 0.55 | 1006.95 ± 0.54 | 1488.1 ± 2.9 | 1502.7 ± 3 | 1515.6 ± 3 | 1526.7 ± 3 | 1536.2 ± 3
m1 = 0.3034 | 1014.04 ± 0.58 | 1013.11 ± 0.57 | 1011.93 ± 0.57 | 1010.5 ± 0.56 | 1008.86 ± 0.55 | 1494.6 ± 3 | 1508.7 ± 3 | 1521 ± 3 | 1531.6 ± 3 | 1540.7 ± 3
m1 = 0.3543 | 1016.3 ± 0.6 | 1015.32 ± 0.59 | 1014.08 ± 0.58 | 1012.61 ± 0.57 | 1010.93 ± 0.56 | 1501.6 ± 3 | 1515 ± 3 | 1526.7 ± 3 | 1536.8 ± 3 | 1545.3 ± 3
m1 = 0.3874 | 1017.82 ± 0.61 | 1016.8 ± 0.6 | 1015.53 ± 0.59 | 1014.03 ± 0.58 | 1012.32 ± 0.57 | 1506.1 ± 3 | 1519.1 ± 3 | 1530.4 ± 3 | 1540.1 ± 3 | 1548.2 ± 3
m1 = 0.4492 | 1020.54 ± 0.63 | 1019.46 ± 0.62 | 1018.13 ± 0.61 | 1016.57 ± 0.6 | 1014.81 ± 0.59 | 1513.7 ± 3 | 1525.9 ± 3 | 1536.4 ± 3 | 1545.4 ± 3 | 1552.9 ± 3
m1 = 0.6269 | 1028.05 ± 0.69 | 1026.78 ± 0.68 | 1025.28 ± 0.67 | 1023.56 ± 0.66 | 1021.66 ± 0.65 | 1535.2 ± 3 | 1545.3 ± 3 | 1553.8 ± 3 | 1561 ± 3.1 | 1566.8 ± 3.1
m1 = 0.8614 | 1037.26 ± 0.76 | 1035.74 ± 0.75 | 1034.03 ± 0.74 | 1032.12 ± 0.73 | 1030.03 ± 0.71 | 1557.7 ± 3.1 | 1565.1 ± 3.1 | 1571.3 ± 3.1 | 1576.3 ± 3.1 | 1580.2 ± 3.1
m1 = 1.001 | 1042.28 ± 0.8 | 1040.64 ± 0.79 | 1038.8 ± 0.78 | 1036.78 ± 0.77 | 1034.6 ± 0.75 | 1568.5 ± 3.1 | 1574.6 ± 3.1 | 1579.6 ± 3.1 | 1583.5 ± 3.1 | 1586.5 ± 3.1
m1 = 1.321 | 1053.01 ± 0.89 | 1051.1 ± 0.88 | 1049.03 ± 0.87 | 1046.8 ± 0.85 | 1044.42 ± 0.84 | 1586.3 ± 3.1 | 1590.3 ± 3.1 | 1593.4 ± 3.1 | 1595.6 ± 3.1 | 1596.9 ± 3.1
m1 = 1.739 | 1065.23 ± 1 | 1063.06 ± 0.99 | 1060.74 ± 0.98 | 1058.31 ± 0.96 | 1055.74 ± 0.95 | 1600 ± 3.2 | 1602.5 ± 3.2 | 1604.1 ± 3.2 | 1604.8 ± 3.2 | 1604.7 ± 3.2
m1 = 2.087 | 1074.16 ± 1.1 | 1071.82 ± 1.1 | 1069.36 ± 1.1 | 1066.78 ± 1 | 1064.09 ± 1 | 1607.4 ± 3.2 | 1608.9 ± 3.2 | 1609.6 ± 3.2 | 1609.4 ± 3.2 | 1608.4 ± 3.2
